Here are results for three molecules from patent publication US8778899B2, “Methods of inducing regulated pancreatic hormone production in non-pancreatic islet tissues” (priority 1999, dated 2014).

One experiment deals with human liver cells. The experiment in a line: Quantitative real-time RT-PCR gene expression in human liver cells. The class given is cell-based. The conditions noted are these: without PDX-1. As for the experimental part:
Liver cells were cultured in Dulbecco's minimal essential medium (1 gr/L glucose) with or without growth factors as indicated separately (EGF 20 ng/ml, Cytolab Ltd.; Nicotinamide 10 mM, Sigma), and were infected by recombinant adenoviruses (500 moi) for 5 days. The recombinant adenoviruses used in this study: Ad-RIP-GFP-CMV-PDX-1, Ad-CMV-PDX-1, Ad-CMV-hIns^40, Ad-CMV-GFP (Clontech, BD Biosciences).
Alternatively, quantitative real-time RT-PCR, was performed using ABI Prism 7000 sequence Detection system (Applied Biosystems).
Amplification conditions included initiation at 50° C. for 2 minutes, denaturation at 95° C. for 10 minutes, followed by 40 cycles, each cycle included denaturation at 95° C. for 15 seconds and annealing at 60° C. for 1 minute, using the TaqMan PCR Master Mix (Applied Biosystems). Relative quantitative analysis was according to ABI prism 7000 SDS software, using the 2^(−ΔCt) equation. The mRNA levels were corrected for human β-actin mRNA.
(Real-time PCR tracks product formation cycle by cycle.)

The next experiment concerns adult human liver cells. Kind of experiment: Glucose challenge assay. Type of experiment: cell-based. The conditions noted are these: 0-25 mM, 2 hours. The protocol:
Adult liver cells were treated with Ad-CMV-PDX-1 and growth factors for 5 days. The cells were plated in 6-well plates at 10^5 cells per well.
For time course analysis the cells were preincubated for 2 hours in Krebs-Ringer buffer (KRB) containing 0.1% BSA, followed by incubation for the indicated period in media containing 2 mM or 25 mM glucose. At each time point media samples were analyzed for insulin (Ultra Sensitive Human Insulin RIA kit—Linco Research) and C-peptide secretion (Human C-Peptide RIA kit—Linco Research).
Glucose dose response; Cells were preincubated for 2 hours with KRB containing 0.1% BSA, washed and challenged thereafter with increasing concentrations of D-Glucose or 2-deoxy-Glucose (0-25 mM) for 2 hours. At the end of the incubation period at 25 mM glucose, the cells were washed with KRB and incubated for additional 2 hours in 2 mM glucose containing media.

As to `NC(=O)c1cccnc1` [nicotinamide], the “PDX-1 independent effect on pancreatic gene expression” value in the experiment with human liver cells is listed as “Neither nicotinamide nor EGF alone or their combination exhibited PDX-1 independent effect”.

On to “EGF: epidermal growth factor, soluble factor added to liver cell cultures (NSDSECPLSHDGYCLHDGVCMYIEALDKYACNCVVGYIGERCQYRDLKWWELR; UniProt P01133 971-1023, looked up)”, for which the “PDX-1 independent effect on pancreatic gene expression” value with human liver cells is on record as “Neither nicotinamide nor EGF alone or their combination exhibited PDX-1 independent effect”.

Consider `O=CC[C@@H](O)[C@H](O)[C@H](O)CO` [2-DOG, 2-deoxy-glucose], for which, in the experiment on adult human liver cells, the “C-peptide secretion in transdifferentiated liver cells” value is on record as “did not trigger C-peptide secretion”.
